In the supplement of paper PMC10307832 one finds relative viability data, which are given here for one cell line.

Common to all, as to assay: relative viability (nuclei count vs DMSO), 5 days (fraction); higher = more cells survive
Compound in the test “Axitinib + Crizotinib”: CNC(=O)c1ccccc1Sc1ccc2c(/C=C/c3ccccn3)n[nH]c2c1 [Axitinib] + C[C@@H](Oc1cc(-c2cnn(C3CCNCC3)c2)cnc1N)c1c(Cl)ccc(F)c1Cl [Crizotinib] (partner 1 µM)
In outline:
(§1)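 Each reported value is a median over duplicate plates. It expresses relative viability: treated-well nuclei count divided by vehicle-well nuclei count. Lung cancer cell lines in 1536-well plates were dosed by pin tool a day after seeding, alone with one drug or with a fixed anchor-drug dose plus five library-drug doses (not always all listed) in √10 steps, and nuclei were counted after 5 days.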

Compound in the test “Bemcentinib + AZD7762”: Nc1nc(Nc2ccc3c(c2)CC[C@@H](N2CCCC2)CC3)nn1-c1cc2c(nn1)-c1ccccc1CCC2 [Bemcentinib] + NC(=O)Nc1cc(-c2cccc(F)c2)sc1C(=O)N[C@H]1CCCNC1 [AZD7762] (partner 0.2 µM)
In outline: as §1

Compound in the test “Bemcentinib + Lapatinib”: Nc1nc(Nc2ccc3c(c2)CC[C@@H](N2CCCC2)CC3)nn1-c1cc2c(nn1)-c1ccccc1CCC2 [Bemcentinib] + CS(=O)(=O)CCNCc1ccc(-c2ccc3ncnc(Nc4ccc(OCc5cccc(F)c5)c(Cl)c4)c3c2)o1 [Lapatinib] (partner 2 µM)
In short, it runs like this:
as §1

Compound in test [1]: CC1=CC=C(C=C1)C(=O)CN2C3=C(CCCC3)SC2=N [Pifithrin_alpha] + Cc1cc(Nc2cc(N3CCN(C)CC3)nc(Sc3ccc(NC(=O)C4CC4)cc3)n2)n[nH]1 [Tozasertib] (partner 0.1 µM)
In short, it runs like this:
as §1

In the case of NCI-H650, the relative viability in the test with Axitinib + Crizotinib (first compound 0.005 µM) worked out at 0.859; in the test with Axitinib + Crizotinib (first compound 0.01581 µM), 0.745; with Axitinib + Crizotinib (first compound 0.05 µM), 0.779; with Axitinib + Crizotinib (first compound 0.1581 µM) it was 0.782; with Axitinib + Crizotinib (first compound 0.5 µM) it was 0.903; with Bemcentinib + AZD7762 (first compound 0.04 µM), 0.956. The relative viability with Bemcentinib + AZD7762 (first compound 0.1265 µM) worked out at 0.964; with Bemcentinib + AZD7762 (first compound 0.4 µM) it was 1.15; with Bemcentinib + AZD7762 (first compound 1.265 µM) it was 0.886; with Bemcentinib + AZD7762 (first compound 4 µM) it was 1.17; in the test with Bemcentinib + Lapatinib (first compound 0.04 µM) it was 0.885; in the test with Bemcentinib + Lapatinib (first compound 0.1265 µM), 1.02. Besides, the relative viability with Bemcentinib + Lapatinib (first compound 0.4 µM) came to 0.906; with Bemcentinib + Lapatinib (first compound 1.265 µM) it was 0.759; with Bemcentinib + Lapatinib (first compound 4 µM), 0.775; in test [1] (first compound 3.162 µM), 0.79; in test [1] (first compound 10 µM), 0.678; in test [1] (first compound 31.62 µM), 0.548. The relative viability in test [1] (first compound 100 µM) is 0.624.
